{
  "source": "patent US7790697B2",
  "about": "“Compositions and methods for inhibiting the synthesis or expression of MMP-1” (Trustees of Dartmouth College, priority 2004, dated 2010)",
  "key": {"[1]": {"system": "MDA-231 cells in type I collagen gel", "assay": "In vitro collagen gel destruction assay", "format": "cell-based", "conditions": "empty vector MDA-231 cells, 36 hours", "description": "In vitro Collagen Gel Destruction Assay. Collagen preparations were carried out on ice to prevent premature jelling. A solution of purified type I bovine collagen (Cohesion Technologies, Palo Alto, Calif.) was neutralized with a sterile 10× phosphate-buffered saline (pH 7.4), and 0.1 M NaOH. The solution of neutralized collagen (2 mg/mL) was mixed with an equivalent volume of cells suspended in serum free DMEM to yield a final concentration of 2×10^5 cells/mL in 1 mg/mL fibrillar collagen, and 1 mL of the collagen/cell mixture was added to each well of a six-well plate. After approximately 1 hour, the collagen jelled, and 1 mL of serum-free media was added on top of the gel. For some experiments, 25 μM ILOMASTAT® (CHEMICON®, Temecula, Calif.), 50 U/mL aprotinin (Sigma, St. Louis, Mo.), 1 μg/mL neutralizing MMP-1 antibody (MMP-1 ab-5; ONCOGENE™ Research Products, San Diego, Calif.), 1 μg/mL monoclonal FLAG® antibody (Sigma, St. Louis, Mo.), or 1% DMSO were added to the collagen before it jelled. After 36 hours of incubation at 37° C. the medium was removed from the top of collagen gels and weighed. The weight of media added at the start of the 37° C. incubation (1 gram) was subtracted from the total media weights to reveal the amount of media liberated by collagen gel destruction.\nAn in vitro collagen destruction assay was developed to determine whether the MMP-1 levels in MDA-231 cells with the empty vector were functionally capable of degrading a collagen matrix, and whether the shRNA-mediated reduction in MMP-1 was sufficient to change the invasive behavior of the cells. MDA-231 cells harboring either the empty vector or the MMP-1 shRNA were embedded in a solution of type I collagen (1 mL). The collagen was allowed to solidify at 37° C., and 1 mL of serum-free medium was layered on top of each gel. After 36 hours at 37° C., the medium was removed from each well and photographs were taken. No collagen was visible in wells containing MDA-231 cells with the empty vector. […] The medium removed from each well was weighed to quantitate the amount of medium liberated as the gel was destroyed. After 36 hours, approximately 1 mL (0.8±0.06 grams) of medium was liberated from the collagen gels containing the MDA-231 cells with the empty vector. […] Conversely, no medium (−0.01±0.03 grams) was liberated from collagen gels containing MDA-231 cells producing the MMP-1 shRNA. The slight decrease in the volume of medium recovered may be due to evaporation of the medium during the incubation period."}, "[2]": {"system": "MDA-231 cells", "assay": "Creation and subcloning of stable MDA-231 cell lines", "format": "cell-based", "conditions": "PSUPER-retro plasmid, G418 selection and subcloning", "description": "Transfection of NIH/3T3 and MDA-231 Cells. NIH/3T3 cells were transiently transfected with LIPOFECTAMINE™ 2000 (INVITROGEN™, Carlsbad, Calif.) along with 0.5 μg peGFP, 0.5 μg pCMV-MMP-1, and 2 μg PSUPER™-MMP-1 shRNA or PSUPER™ with no insert. Transfection efficiency was monitored using eGFP signal. Total cellular RNA was harvested 48 hours after transfection and analyzed for MMP-1 mRNA by real-time RT-PCR. MDA-231 cells were stably transfected in triplicate with LIPOFECTAMINE™ 2000 (INVITROGEN™, Carlsbad, Calif.) and 2 μg of the PSUPER™.Retro.Neo.GFP plasmid containing the MMP-1 shRNA, the scrambled sequence or just the empty vector. Stable cell lines were selected by growth in the presence of 1 mg/mL G418 (STRATAGENE®, La Jolla, Calif.). Individual, stable cell lines were isolated with cloning disks according to the manufacturer's instructions (PGC Scientifics, Frederick, Md.).\nThree groups of stable MDA-231 cell lines were created. One group contained only the PSUPER™-retro plasmid, a second group contained a PSUPER™-retro plasmid with the scrambled shRNA sequence, and the third contained a PSUPER™-retro plasmid with the MMP-1 shRNA oligonucleotide."}, "[3]": {"system": "MMP-1 protein", "assay": "Western blot of MMP-1 protein in culture medium", "format": "cell-based, human", "conditions": "empty vector MDA-231 cells in collagen gel; 50 U/mL; 24 hours", "description": "Western Blot Analysis. MDA-231 cells were cultured in 1 mL serum-free DMEM/F12 medium in six-well plates in the presence or absence of a collagen gel, with or without aprotinin (50 U/mL; Sigma, St. Louis, Mo.). After 24 hours, medium was harvested, proteins precipitated with cold 10% trichloroacetic acid, and resuspended in 50 μL SDS loading buffer (PROMEGA®, Madison, Wis.). Following SDS-PAGE and transfer to a PVDF membrane (IMMOBILON™-P; MILLIPORE™, Bedford, Mass.), the membrane was incubated in a 5% milk, Tris-buffered saline solution with 0.1% TWEEN™ (milk TBST) for 1 hour. The membrane was probed with a MMP-1 polyclonal antibody (CHEMICON®, Temecula, Calif.) diluted 1:5000 in milk TBST overnight at 4° C. The membrane was washed three times with TBST, and a 1:2000 dilution of goat anti-rabbit horseradish peroxidase (HRP) conjugated antibody (CELL SIGNALING TECHNOLOGY®, Beverly, Mass.) in milk TBST was added for 60 minutes. The blot was washed three times with TBST, and HRP activity was detected with the WESTERN LIGHTNING® chemiluminescence reagent according to the manufacturer's instructions (PERKINELMER®, Boston, Mass.).\nThe three MMPs primarily responsible for degrading type 1 collagen are MMP-1, MMP-13, and the membrane bound MT1-MMP (Stamenkovic (2003) J. Pathol. 200:448-64). […]"}},
  "data": [
    {"molecule": "CNC(=O)[C@H](Cc1c[nH]c2ccccc12)NC(=O)[C@@H](CC(=O)NO)CC(C)C", "note": "[ILOMASTAT®, ILOMASTAT, reference compound]", "values": [
      {"measurement": "medium liberated from collagen gels", "setting": "[1]; 25 μM/gel inhibitor embedded", "result": "−0.1±0.08", "unit": "grams"}
    ]},
    {"molecule": "scrambled shRNA: Control shRNA with identical hairpin loop and linker, sequence not complementary to any human gene (SEQ ID NO:6) (AAGTGGAGGGACGTATGCA; the letters are possibly those of the target site)", "values": [
      {"measurement": "growth and survival of stably transfected cells", "setting": "[2]", "result": "did not grow well, and did not survive the subcloning procedures"}
    ]},
    {"molecule": "aprotinin [reference compound]", "values": [
      {"measurement": "MMP-1 bands in medium / activation of proMMP-1 (western blot)", "setting": "[3]", "result": "only the higher molecular weight zymogen band"},
      {"measurement": "medium liberated from collagen gels", "setting": "[1]; 50 U/mL collagen embedded", "result": "0.01±0.1", "unit": "grams"}
    ]}
  ]
}
